PubChem BioAssay AID256 (DTP/NCI, 2004)
Where “and” joins values, the source holds several entries; their conditions need not be identical. Equal entries are not always repeated. Inconclusive results and toxic doses are left out. The calls were made as follows: active = survival T/C of 150% or more; inactive = T/C below 125% in these data.

System: CD2F1 mice, L1210 leukemia ip, survival T/C
Experiment: NCI In Vivo Anticancer Drug Screen. Data for tumor model L1210 Leukemia (intraperitoneal) in CD2F1 (CDF1) mice
Conditions: higher = longer survival
In short: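 Antitumor effect is scored in animals hosting a serially transplanted tumor. Values compare compound-dosed animals against vehicle-only controls as a simple quotient.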

[1] = endpoint: mean survival time, dose: 100.0 mg/kg/injection, schedule: Q01DX009 (ip), vehicle: saline with Tween-80
[2] = endpoint: mean survival time, dose: 200.0 mg/kg/injection, schedule: Q01DX009 (ip), vehicle: saline with Tween-80
[3] = endpoint: mean survival time, dose: 400.0 mg/kg/injection, schedule: Q01DX009 (ip), vehicle: saline with Tween-80
[4] = endpoint: mean survival time, dose: 100.0 mg/kg/injection, schedule: Q04DX003 (ip), vehicle: saline with Tween-80
[5] = endpoint: mean survival time, dose: 200.0 mg/kg/injection, schedule: Q04DX003 (ip), vehicle: saline with Tween-80
[6] = endpoint: mean survival time, dose: 400.0 mg/kg/injection, schedule: Q04DX003 (ip), vehicle: saline with Tween-80

Measured: T/C

O=C1CCCCCCCC1O (stereo unspecified)
inactive: [1] 95 % of control | [2] 94 % of control | [3] 105 % of control

CC(C)(O)C#Cc1ccccc1
inactive: [1] 98 % of control | [2] 98 % of control | [3] 96 % of control

Oc1ccc(C(=S)N2CCOCC2)cc1
inactive: endpoint: mean survival time, dose: 100.0 mg/kg/injection, schedule: Q01DX009 (ip), vehicle: saline 100 % of control | endpoint: mean survival time, dose: 200.0 mg/kg/injection, schedule: Q01DX009 (ip), vehicle: saline 95 % of control | endpoint: mean survival time, dose: 400.0 mg/kg/injection, schedule: Q01DX009 (ip), vehicle: saline 94 % of control

O=C(Nc1ccc(F)cc1)Nc1cccc2ccccc12
inactive: [4] 96 % of control | [5] 96 % of control | [6] 111 % of control

CC/C=N/NC(=O)c1ccc[n+](C)c1
inactive: endpoint: mean survival time, dose: 100.0 mg/kg/injection, schedule: Q04DX002 (ip), vehicle: saline with Tween-80 100 % of control | endpoint: mean survival time, dose: 200.0 mg/kg/injection, schedule: Q04DX002 (ip), vehicle: saline with Tween-80 92 % of control | endpoint: mean survival time, dose: 400.0 mg/kg/injection, schedule: Q04DX002 (ip), vehicle: saline with Tween-80 96 % of control

CCC1(O)C(=O)OCc2c1cc1n(c2=O)Cc2cc3ccc(C)cc3nc2-1 (stereo unspecified)
inactive: endpoint: median survival time, dose: 10.0 mg/kg/injection, schedule: Q04DX002 (ip), vehicle: saline with Tween-80 108 % of control

CC(=O)NC(Cc1ccc(N(CCCl)CCCl)cc1)C(=O)O (stereo unspecified)
inactive: endpoint: mean survival time, dose: 3.12 mg/kg/injection, schedule: Q01DX009 (ip), vehicle: saline 97 % of control | endpoint: mean survival time, dose: 6.25 mg/kg/injection, schedule: Q01DX009 (ip), vehicle: saline 105 % of control | endpoint: mean survival time, dose: 12.5 mg/kg/injection, schedule: Q01DX009 (ip), vehicle: saline 118 % of control

Cc1ccn(C)c(=N)c1
inactive: endpoint: mean survival time, dose: 100.0 mg/kg/injection, schedule: Q01DX009 (ip), vehicle: saline sonified 97 % of control | [4] 94 % of control | endpoint: mean survival time, dose: 200.0 mg/kg/injection, schedule: Q01DX009 (ip), vehicle: saline sonified 98 % of control | [5] 93 % of control | [6] 93 % of control

O=C(NC(=S)N1CCCC1)c1ccccc1
inactive: endpoint: mean survival time, dose: 50.0 mg/kg/injection, schedule: Q01DX009 (ip), vehicle: saline with Tween-80 101 % of control | [1] 103 % of control | [2] 106 % of control

CC1OC(n2cc(Cl)c(=O)[nH]c2=O)C2OC(C)(C)OC2C1=O (stereo unspecified)
inactive: endpoint: median survival time, dose: 25.0 mg/kg/injection, schedule: Q01DX005 (ip), vehicle: Klucel (hydroxypropylcellulose) (HPC) 102 % of control | endpoint: median survival time, dose: 50.0 mg/kg/injection, schedule: Q01DX005 (ip), vehicle: Klucel (hydroxypropylcellulose) (HPC) 100 % of control | endpoint: median survival time, dose: 100.0 mg/kg/injection, schedule: Q01DX005 (ip), vehicle: Klucel (hydroxypropylcellulose) (HPC) 102 % of control | endpoint: median survival time, dose: 200.0 mg/kg/injection, schedule: Q01DX005 (ip), vehicle: Klucel (hydroxypropylcellulose) (HPC) 107 % of control

CCCC(CCC)NCCO
inactive: endpoint: mean survival time, dose: 75.0 mg/kg/injection, schedule: Q01DX001 (ip), vehicle: saline 98 % of control | endpoint: mean survival time, dose: 150.0 mg/kg/injection, schedule: Q01DX001 (ip), vehicle: saline 96 % of control

O=C1NC(=O)C2=C1C1(Cl)C(Cl)=C(Cl)C2(Cl)C1(Cl)Cl
inactive: [4] 103 % of control | [5] 101 % of control | [6] 103 % of control

COc1cccc2c1C(=N)c1c(O)c3c(c(O)c1C2=O)C[C@@](O)(C(C)=O)C[C@@H]3OC1CC(N)C(O)C(C)O1 (stereo partly specified)
inactive: endpoint: mean survival time, dose: 0.5 mg/kg/injection, schedule: Q01DX009 (ip), vehicle: saline 121 % of control and 108 % of control | endpoint: mean survival time, dose: 1.0 mg/kg/injection, schedule: Q01DX009 (ip), vehicle: saline 124 % of control | endpoint: mean survival time, dose: 2.0 mg/kg/injection, schedule: Q01DX009 (ip), vehicle: saline 113 % of control and 122 % of control | endpoint: mean survival time, dose: 4.0 mg/kg/injection, schedule: Q01DX009 (ip), vehicle: saline 114 % of control and 119 % of control | endpoint: mean survival time, dose: 8.0 mg/kg/injection, schedule: Q01DX009 (ip), vehicle: saline 101 % of control

CCOC(=O)Nc1cc(Cl)ccc1O
inactive: [1] 103 % of control | [4] 92 % of control | [2] 104 % of control | [5] 103 % of control | [6] 88 % of control
